Test: refractive index (Na D-line) (dimensionless); xn = mol fraction of the nth substance listed
Settings: 101 kPa, Liquid, Standard Abbe refractometry

COC(=O)c1ccccc1C(=O)OC [dimethyl 1,2-benzenedicarboxylate] + CCCCO
refractive index
Settings	x1 = 0.0997	x1 = 0.1998	x1 = 0.2994	x1 = 0.3999	x1 = 0.5	x1 = 0.5985	x1 = 0.7001	x1 = 0.8016	x1 = 0.9002	x1 = 1
288.15 K	1.42114	1.43796	1.45268	1.4657	1.47709	1.48663	1.49584	1.50398	1.51118	1.51779
293.15 K	1.41907	1.43584	1.45052	1.46353	1.47491	1.48446	1.49365	1.50183	1.50903	1.51565
298.15 K	1.41699	1.43374	1.44835	1.46136	1.47274	1.48227	1.49148	1.49966	1.50689	1.51354
303.15 K	1.41489	1.43158	1.44618	1.45918	1.47057	1.4801	1.48929	1.49753	1.50474	1.51146
308.15 K	1.41266	1.42932	1.44399	1.45694	1.46834	1.47795	1.4871	1.49537	1.50263	1.50943
313.15 K	1.41048	1.42712	1.4417	1.45469	1.4662	1.47585	1.48507	1.4933	1.50061	1.50736
318.15 K	1.40835	1.42501	1.43965	1.45257	1.46395	1.47376	1.48299	1.49121	1.49853	1.50524
323.15 K	1.40609	1.42274	1.4375	1.45024	1.46165	1.47156	1.48083	1.48906	1.4964	1.5032
